{"source": "patent US8338363B2", "about": "“Pharmaceutical compositions comprising casein derived peptides and methods of use thereof” (Mileutis Ltd., priority 2005, dated 2012)", "test": "Welfare of cows induced to dry off (Example 6): udder pressure index, steps/lying ratio", "type": "in vivo, Holstein cows", "protocol": "20 Holstein cows toward the end of lactation (˜60 days) and producing 17-35 liters milk per day were entered to the study. Cows were paired according to lactation number, days in milk, days to parturition, teat-end integrity, milk yield, SCC per ml of milk per cow or quarter and number of quarters infected at day of drying-off (Table 13).\nQuarter's milk SCC and bacterial isolation were tested a week apart for 3 times, before drying-off. One cow of each pair was then assigned to a subgroup randomly (by flipping a coin). Cows in subgroup 1 were treated after milking with casein hydrolyzate and with the broad range antibiotic Cefquinome, (75 mg per dose) (N+C), while the cows in subgroup 2 were treated with Cefquinome alone (75 mg per dose) (C). […]\nUdder pressure index (UPI) was set as follows: 0, 1, 2 and 3, where 0 is no pressure, 1 is medium pressure, 2 is high pressure and 3 is extremely high pressure. Arbitrary UPI values were determined by assessing the udder pressure by pressing a finger into the tissue and assessing its resistant to pressure in two areas, the milk cistern and corpus ubeis, 10 cm above the teats. […]\nData were statistically analyzed using the fit model procedure for repeated measurements of JMP (Version 5, SAS Institute, Cary, N.C.); treatment was the between-subject factor and time was the within-subject factor. […]", "data": [{"molecule": "CO/N=C(\\C(=O)N[C@@H]1C(=O)N2C(C(=O)[O-])=C(C[n+]3cccc4c3CCCC4)CS[C@H]12)c1csc(N)n1", "note": "[C, Cefquinome]", "values": [{"measurement": "Udder pressure index (UPI), single cow", "setting": "day 4 after treatment, cow with milk yield over 30 liters per day at dry-off (FIG. 4)", "value": "~2"}, {"measurement": "ratio between number of steps and duration of lying (RSL)", "setting": "from the second day after treatment, 10 cows per group (FIG. 5)", "value": "unchanged"}]}]}
